Experimental data reported in US20100055168A1, “CATIONIC LIPIDS AND USES THEREOF” (ABBOTT LABORATORIES, priority 2008, published 2010).

Tests used:
Assay type in all cases: physicochemical
Settings in all cases: Lipid:siRNA 25:1
[1] = Particle sizing assay of in vivo formulations (Zetasizer Nano ZS)
Protocol: (§1) A round bottom flask was submerged into a 65° C. water bath. Citrate buffer (37.5 ml) of pH 4.0 was pipetted into the flask. The solution was stirred by a magnetic stirring bar at a speed of 900 rpm. Both the pH 4.0 citrate buffer and the lipid solution were pre-warmed in the 65° C. water bath for about 3 minutes. A siRNA solution (0.5 ml) was pipetted into the pH 4.0 citrate buffer. The 12.5 ml lipid mixture solution was injected through a 27 gauge needle into the citrate buffer in about 30 seconds. The needle tip was inserted into the solution during the injection. The resulting solution was stirred for 5 minutes at a speed of 900 rpm. The flask was pulled up from the water bath and a 50 ml pH 7.4 PBS buffer was added into the flask. The final solution was further mixed at a speed of 900 rpm for 5 minutes. For the diafiltration process, a dialysis filter (Millipore, 100K, Cat #PXB100C50) was used to remove ethanol in the above solution. When the volume was reduced to 20 ml during the initial diafiltration, 20 ml of pH 7.4 PBS was added to the sample solution. The diafiltration was continued until the volume was reduced to 20 ml. The diafiltration process was repeated 4 times. The volume of the sample solution was reduced to about 12 ml and pH 7.4 PBS was added to make the final volume of 15 ml. The 15 ml solution was filtered sequentially through the 0.45 and 0.22 μm sterile PVDF membrane filters (Millipore) and immediately transferred into a sterile vial.
For measurements of particle sizes and size distributions (PDI), lipid-based particles were prepared as described above. The particle solution (60 μL) was pipetted into a disposable cuvette (UVette, Eppendorf, cat #952010051) and measured in the “General Purpose” mode. Attenuator and position were optimized by the device. Measurements were performed using a Zetasizer Nano ZS (Malvern Instruments) equipped with a 4 mW He—Ne laser at a wavelength of 633 nm at 25° C. Scattered light was detected at a 173° backward scattering angle. The viscosity and refractive index of water at 25° C. was used for data analysis with the Dispersion Technology Software 5.00 (Malvern Instruments).

[2] = Ribogreen assay for siRNA encapsulation efficiency of Lipid-Based Particles
Protocol: The mixing solution of cationic lipids, cholesterol, non-cationic lipids and PEG-lipids was prepared in ethanol (total concentration at 10 mg/mL). siSTABLE (purchased from ThermoFisher) (sense-5′ GGGGAAAGCUGGCAAGAUUUU-3′ SEQ ID NO: 1) antisense-5′-AAUCUUGCCAGCUUUCCCCUU-3′ SEQ ID NO: 2) % stock solution was prepared in 10 mg/mL of solution by dissolving 10 mg siRNA in 1 mL of RNAse-free UltraPure Water. The calculated amount of siRNA solution was added to 1 mL of citrate buffer (pH 4.0, 20 mM), to provide an siRNA concentration of 0.2 mg/mL, and warmed to 60° C. The calculated amount of lipid solution was warmed to 60° C., transferred to a 0.5 mL syringe with 28½ gauge needle, and injected into the citrate buffer with stirring at 60° C. After 3 minutes, 3 mL of PBS solution at room temperature (pH 7.4) was added into the lipid mixture with stirring. The Lipid-Based Particle solution was cooled to room temperature.
(§2) The siRNA concentrations were measured using Quanti-iT RiboGreen RNA reagent (Molecular Probes, (R11490)). Vesicle sizes were characterized by dynamic light scattering with a DynaPro™ Plate Reader (Wyatt Technology) in 96-well half-area UV plate (Coring) after diluting the formulation sample (20 μL) in phosphate buffered saline (80 μL) at a pH of about 7-8. A 1% agarose gel-based assay was used for analyzing nuclease degradation and protection. Encapsulation efficiency (EE) was calculated using data obtained from a RiboGreen assay.
RNA concentration and encapsulation efficiency were determined using a Quant-iT® Ribogreen RNA reagent and kit available from Invitrogen. The siRNA was released from the Lipid-Based Particle using one of the following reagents: ethanol, Triton X-100, or phenol/chloroform. The siRNA concentration is quantified using fluorescent reading at 480 nm/520 nm.
as §1

[3] = Particle sizing assay of in vitro formulations (dynamic light scattering, DynaPro plate reader)
Protocol: as §2
Particle sizes and size distributions (PDI) were characterized by using dynamic light scattering (DLS). A DLS plate reader (Dynapro™, Wyatt Technology) was used for the DLS measurement. This DLS plate reader uses an 830 nm laser and the scattering angle is 158°. It also can control temperature from 4° C. to 70° C. A 96-well format was employed for the samples.
Samples for DLS analysis were prepared by mixing 20 μL of each sample stock solution with 80 μL PBS directly in the 96-well plate (#3697, Coming). Sample mixing was accomplished using a microplate shaker (Orbis, Mikura Ltd.). Plates were read at 20° C. with an acquisition time of 50 seconds for each sample, and data was analyzed with Wyatt Technology's Dynamics V6 software. To rule out potential multiple scattering artifacts, a second plate at […] reduced sample concentrations was independently prepared by mixing 5 μL stock solutions with 95 μL PBS. Under our experimental conditions the results at the two concentrations were very similar, and the final reported result for each sample represents the average of values obtained from the two plates.

[4] = in vivo formulation A: Cationic lipid/Example 58/DSPC/Chol 45/10/15/30 wt %
[5] = in vitro formulation b: Cationic lipid/PEG-Chol/DSPC/Chol 45/10/15/30 wt %
[6] = in vivo formulation D: Cationic lipid/PEG-DMPE/PEG-DSPE/DSPC/Chol 44/4.5/4.5/14/33 wt %
[7] = in vivo formulation C: Cationic lipid/Pal-PEG-Cera/DSPC/Chol 45/10/15/30 wt %
[8] = in vitro formulation a: Cationic lipid/Example 56/DSPC/Chol 45/10/15/30 wt %

Row | Compound | Size [1, 4] [nm] | % Encapsulation Efficiency [2, 4] [%] | PDI (size distribution) [1, 4] | Size [3, 5] [nm] | % Encapsulation Efficiency [2, 5] [%] | also measured
1 | CCCCC/C=C\C/C=C\CCCCCCCCOCC(COCCCCCCCC/C=C\C/C=C\CCCCC)NCCCn1ccnc1 [Example 3, N-(3-(1H-imidazol-1-yl)propyl)-N-(2-((9Z,12Z)-octadeca-9,12-dienyloxy)-1-(((9Z,12Z)-octadeca-9,12-dienyloxy)methyl)ethyl)amine] | 185 | 87.6 | – | – | – | –
2 | CCCCCCCC/C=C\CCCCCCCCOCC(COCCCCCCCC/C=C\CCCCCCCC)NCCCN1CCCC1 [Example 53, N-(2-[(9Z)-octadec-9-enyloxy]-1-{[(9Z)-octadec-9-enyloxy]methyl}ethyl)-N-(3-pyrrolidin-1-ylpropyl)amine] | – | – | – | – | 99.0 | PDI (size distribution) [1, 6]: 0.089; Size [1, 6]: 121.2 nm; % Encapsulation Efficiency [2, 6]: 99.0%
3 | CCCCC/C=C\C/C=C\CCCCCCCC(=O)OCC(COC(=O)CCCCCCC/C=C\C/C=C\CCCCC)NCCCN1CCCC1 [Example 22, (9Z,9′Z,12Z,12′Z)-2-(3-(pyrrolidin-1-yl)propylamino)propane-1,3-diyl dioctadeca-9,12-dienoate] | – | – | – | – | – | Size [3, 8]: 120.8 nm; % Encapsulation Efficiency [2, 8]: 88.4%
4 | CCCCC/C=C\C/C=C\CCCCCCCCOCC(COCCCCCCCC/C=C\C/C=C\CCCCC)N1CCN(CCCN(C)C)CC1 [Example 10, N,N-dimethyl-N-(3-(4-(2-((9Z,12Z)-octadeca-9,12-dienyloxy)-1-(((9Z,12Z)-octadeca-9,12-dienyloxy)methyl)ethyl)piperazin-1-yl)propyl)amine] | – | – | – | 112 | 72.6 | –
5 | CCCCC/C=C\C/C=C\CCCCCCCCOCC(COCCCCCCCC/C=C\C/C=C\CCCCC)N(C)CCCN1CCCC1 [Example 14, N-methyl-N-(2-((9Z,12Z)-octadeca-9,12-dienyloxy)-1-(((9Z,12Z)-octadeca-9,12-dienyloxy)methyl)ethyl)-N-(3-pyrrolidin-1-ylpropyl)amine] | – | – | – | 128.4 | 88.3 | –

Now from value to molecule, other results behind:

Row | Size [1, 4] [nm] | % Encapsulation Efficiency [2, 4] [%] | PDI (size distribution) [1, 4] | Size [3, 5] [nm] | % Encapsulation Efficiency [2, 5] [%] | Compound | also measured
6 | 149 | 72.6 | 0.2 | 125.6 | 96.7 | CCCCC/C=C\C/C=C\CCCCCCCCOCC(COCCCCCCCC/C=C\C/C=C\CCCCC)N1CCN(C)CC1 [Example 4, 1-methyl-4-(2-((9Z,12Z)-octadeca-9,12-dienyloxy)-1-(((9Z,12Z)-octadeca-9,12-dienyloxy)methyl)ethyl)piperazine] | –
7 | 123 | – | 0.15 | 130 | 91.8 | CCCCC/C=C\C/C=C\CCCCCCCCOCC(COCCCCCCCC/C=C\C/C=C\CCCCC)NCCN(C)C [Example 7, N,N-dimethyl-N′-(2-((9Z,12Z)-octadeca-9,12-dienyloxy)-1-(((9Z,12Z)-octadeca-9,12-dienyloxy)methyl)ethyl)ethane-1,2-diamine] | PDI (size distribution) [1, 7]: 0.128; Size [1, 7]: 119 nm; % Encapsulation Efficiency [2, 7]: 91.8%
8 | – | – | – | 130 | 93.1 | CCCCC/C=C\C/C=C\CCCCCCCCOCC(COCCCCCCCC/C=C\C/C=C\CCCCC)N(C)CC1CCN(C)CC1 [Example 16, N-methyl-N-((1-methylpiperidin-4-yl)methyl)-N-(2-((9Z,12Z)-octadeca-9,12-dienyloxy)-1-(((9Z,12Z)-octadeca-9,12-dienyloxy)methyl)ethyl)amine] | –
9 | 116 | 93.2 | 0.054 | – | 98.1 | CCCCC/C=C\C/C=C\CCCCCCCCOCC(COCCCCCCCC/C=C\C/C=C\CCCCC)CN1CCN(C)CC1 [Example 23, 1-methyl-4-(3-((9Z,12Z)-octadeca-9,12-dienyloxy)-2-(((9Z,12Z)-octadeca-9,12-dienyloxy)methyl)propyl)piperazine] | –
10 | – | – | – | 119.8 | 84.9 | CCCCC/C=C\C/C=C\CCCCCCCCOCC(COCCCCCCCC/C=C\C/C=C\CCCCC)NCC1CCN(C)CC1 [Example 12, N-((1-methylpiperidin-4-yl)methyl)-N-(2-((9Z,12Z)-octadeca-9,12-dienyloxy)-1-(((9Z,12Z)-octadeca-9,12-dienyloxy)methyl)ethyl)amine] | –
11 | 138 | – | 0.13 | 116.8 | 95.8 | CCCCC/C=C\C/C=C\CCCCCCCCOCC(COCCCCCCCC/C=C\C/C=C\CCCCC)NCCc1c[nH]cn1 [Example 9, N-(2-(1H-imidazol-4-yl)ethyl)-N-(2-((9Z,12Z)-octadeca-9,12-dienyloxy)-1-(((9Z,12Z)-octadeca-9,12-dienyloxy)methyl)ethyl)amine] | PDI (size distribution) [1, 7]: 0.104; Size [1, 7]: 87 nm; % Encapsulation Efficiency [2, 7]: 98.9%
12 | 121 | 75.5 | 0.145 | 132.6 | 84.2 | CCCCC/C=C\C/C=C\CCCCCCCCOCC(COCCCCCCCC/C=C\C/C=C\CCCCC)NCCCN1CCCC1 [Example 6, N-(2-((9Z,12Z)-octadeca-9,12-dienyloxy)-1-(((9Z,12Z)-octadeca-9,12-dienyloxy)methyl)ethyl)-N-(3-pyrrolidin-1-ylpropyl)amine] | –
